Results as given in patent publication US6605642B2, “Inhibitors of formation of advanced glycation endproducts (AGES)” (City of Hope, priority 1999, dated 2003).

Assays:
Assay type in all cases: biochemical
BSA = biological target: T1, BSA (Bos taurus, UniProt P02769); assay: BSA-Glucose assay, glucose-mediated development of fluorescence of BSA; details: 7 days at 37° C., fluorescence 330/410 nm; for Percent Inhibition in the BSA-Glucose Assay: 1 millimole/L inhibitor
T1 construct: BSA (fraction V, essentially fatty acid free, low endotoxin) from Sigma; purchased Sigma
Protocol: This test is used to evaluate the ability of the inhibitors to inhibit glucose-mediated development of fluorescence of BSA (Ikeda et al., 1996). Triplicate samples of BSA (fraction V, essentially fatty acid free, low endotoxin) from Sigma 50 mg/mL and 800 mM glucose (144 mg/mL) in […] phosphate buffer pH 7.4 containing NaN3 0.2 g/L was incubated under aseptic conditions at 37° C. for 7 days in the presence or absence of various concentrations of the compounds. After 7 days of incubation each sample was examined for the development of specific fluorescence (excitation, 330 nm; emission, 410 nm). The % inhibition of AGE formation in the test sample versus control was calculated for each inhibitor compound. Aminoguanidine (50 mM) was used as a positive control.
This assay method is mostly for the inhibitors of late glycation and AGE formation (post-Amadori). The results obtained by this assay show all ten compounds investigated here have strong inhibitory effects on post-Amadori glycation, AGE formation and AGE crosslinking.

[1] = biological target: T2, hemoglobin (HbA1C formation) (Homo sapiens, UniProt P68871+P69905); assay: Hemoglobin-δ-Gluconolactone (δ-Glu) assay, early stage glycation; details: 1 millimole/L inhibitor, δ-Glu treated whole blood, 16 hours at 37° C.
T2 construct: δ-Glu, an oxidized analogue of glucose, can react rapidly with hemoglobin within the red cells; from tissue; host or cells: fresh whole blood (red blood cells) from normal volunteers
Protocol: The δ-Glu assay is a specific method for investigation of inhibitors of the early stage of glycation. Evaluation of early glycation products (Amadori) formation on hemoglobin (HbA1C) is performed by incubating red blood cells with an oxidized form of glucose in the presence and the absence of the inhibitor compound followed by determination of HbA1C in the test versus the control (Rahbar and Nadler., 1999). […] By contrast, glucose requires weeks for an equivalent reaction to occur. We have used this finding to devise an assay method to measure early stage glycation of hemoglobin (Amadori product) and an assay to evaluate the ability of an inhibitor to inhibit HbA1C formation. Briefly, fresh blood was drawn in potassium-EDTA and prepared for incubation within 30 minutes of collection by mixing 200 μL of blood with 40 μL of either phosphate buffered-saline (PBS), pH 7.4, alone, PBS containing 50 millimoles/L δ-Glu (Sigma), or PBS containing 50 millimoles/L δ-Glu plus 1 millimole/L inhibitor. After incubation for 16 hours at 37° C., the percentage of glycated hemoglobin present was determined. The percentage of glycated Hb (HbA1C) was determined using a dedicated ion-exchange HPLC system (BIORAD DIAMAT). Blood samples were analyzed in triplicate. The % inhibition of HbA1C formation by the compound was calculated according to the following formula: […]
where A is HbA1C concentration in the baseline control tube not treated with δ-Glu, B is the HbA1C concentration in blood incubated with δ-Glu, C is the HbA1C content of the test tube treated both with δ-Glu and the inhibitor compound.
The amount of (HbA1C) formation using δ-Glu treated whole blood from normal volunteers using 1 millimole/L of the compounds is shown in FIG. 1. Levels of HbA1C in the δ-Glu treated blood is twice as high as the baseline control. Various inhibitors (compounds LR93-LR102) show different levels of HbA1C depending on their inhibitory potencies.

G.K. peptide = assay: N-Acetyl-Glycyl-Lysine Methyl Ester (G.K. Peptide)-Ribose assay; details: 24 hours at 37° C., fluorescence 330/415 nm; for Percent Inhibition in the G.K.-Ribose Assay: 1 millimole/L inhibitor
Protocol: Evaluation of the late glycation products (AGEs), and AGE-inhibition by the new inhibitor compounds was tested by incubation of G.K. peptide in ribose in the presence or the absence of the agent, followed by determination of chromophores generated in the course of glycation and AGE formation through determination of their specific fluorescence. The Nagaraj et al. (1996) method used to evaluate the ability of the compounds of the present invention to inhibit the crosslinking of N-acetylglycyl-lysine methyl ester in the presence of ribose was as follows: Stock Solutions: 0.5 M sodium phosphate buffer pH 7.4 containing NaN3 0.2 g/L GK peptide (Sigma) 80 mg/mL in 0.5 M sodium phosphate buffer pH 7.4 Ribose 800 mM (120 mg/mL) in 0.5 M phosphate buffer Triplicate samples of equal volumes (0.1 mL) of the 3 stock solutions were mixed together, filtered through a 0.2 micron filter (Corning) and incubated under aseptic conditions for 24 hours at 37° C. The inhibitor compounds were added to a final concentration of 1 millimole/L. At the end of the incubation period, samples were analyzed for their specific fluorescence (excitation, 330 nm; emission, 415 nm). The % inhibition by different concentrations of inhibitor was calculated as described above. Aminoguanidine was used at 50 mM as a positive control. […] The results of this assay indicate that all ten compounds investigated here have strong inhibitory effects and block specific fluorescence of proteins AGE in these separate determinations.

[2] = biological target: T3, collagen-AGE-BSA crosslinking (Bos taurus, UniProt P02769); assay: ELISA assay, crosslinking of AGE-BSA to rat tail-tendon-collagen coated plate; details: for Inhibition of AGE-protein crosslinking (in words): ELISA, FIGS. 4A-C, 0.1-0.5 mM; for Effectiveness relative to pyridoxamine, inhibition of AGE-protein-crosslinking: compared with pyridoxamine (Khalifah et al., 1999)
T3 construct: purchased Becton Dickinson
Protocol: A special ELISA technique (Al-abed et al., 1999) was used to evaluate the ability of the compounds being studied to inhibit the crosslinking of glycated-BSA (AGE-BSA) to a rat tail-tendon-collagen coated 96 well plate (Biocoat Cell Environment, Becton Dickinson). Crosslinking of AGE-BSA to a rat tail-tendon-collagen coated plate was performed with and without the testing compound at the desired concentrations. The uncross-linked AGE-BSA was then removed by washing the wells. The AGE-BSA crosslinked to the tail-tendon-collagen coated plate was then quantified by a polyclonal antibody raised against AGE-RNase in our laboratory. Positive results in the assay indicate that the inhibitor is capable of reducing the amount of AGE-BSA which crosslinks with collagen. Aminoguanidine was used as positive control.

T3 sequence (P02769 25-607): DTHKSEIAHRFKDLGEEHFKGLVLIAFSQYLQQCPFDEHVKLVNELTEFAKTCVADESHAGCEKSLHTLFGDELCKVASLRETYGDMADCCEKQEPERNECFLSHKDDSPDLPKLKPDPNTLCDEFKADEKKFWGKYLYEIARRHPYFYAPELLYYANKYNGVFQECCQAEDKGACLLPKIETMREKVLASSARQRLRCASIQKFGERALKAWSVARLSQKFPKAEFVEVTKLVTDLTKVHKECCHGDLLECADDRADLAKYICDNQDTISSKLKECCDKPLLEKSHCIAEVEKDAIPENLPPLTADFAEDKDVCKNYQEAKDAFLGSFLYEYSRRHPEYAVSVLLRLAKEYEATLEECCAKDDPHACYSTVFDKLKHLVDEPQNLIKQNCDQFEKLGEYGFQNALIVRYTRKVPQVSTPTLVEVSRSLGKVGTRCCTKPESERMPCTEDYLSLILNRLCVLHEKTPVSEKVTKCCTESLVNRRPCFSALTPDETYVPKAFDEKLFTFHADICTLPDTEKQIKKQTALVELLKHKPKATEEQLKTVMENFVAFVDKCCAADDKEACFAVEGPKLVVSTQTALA
T1 sequence (P02769 25-607): as above
T2 sequence (P68871 2-147 limits assumed): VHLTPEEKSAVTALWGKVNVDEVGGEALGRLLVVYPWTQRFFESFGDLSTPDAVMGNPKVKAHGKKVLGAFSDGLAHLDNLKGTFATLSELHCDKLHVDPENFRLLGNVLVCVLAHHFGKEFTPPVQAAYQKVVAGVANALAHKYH
T2 sequence (P69905 2-142 limits assumed): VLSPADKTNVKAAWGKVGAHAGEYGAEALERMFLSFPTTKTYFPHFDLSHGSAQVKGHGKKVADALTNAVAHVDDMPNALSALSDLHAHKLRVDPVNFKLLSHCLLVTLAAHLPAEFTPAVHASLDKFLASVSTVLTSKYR

Structure (SMILES)	inhibition at 50000 µM (BSA; aminoguanidine 50 mM, read-out: Percent Inhibition in the BSA-Glucose Assay (positive control))	Percent Inhibition of HbA1c formation in the δ-Glu Assay [1]	Percent Inhibition in the G.K.-Ribose Assay (positive control) (G.K. peptide; aminoguanidine 50 mM)	Percent Inhibition in the BSA-Glucose Assay (BSA)	Percent Inhibition in the G.K.-Ribose Assay (G.K. peptide)	Inhibition of AGE-protein crosslinking (in words) [2]	Effectiveness relative to pyridoxamine, inhibition of AGE-protein-crosslinking [2]
N=C(N)NN [AG, aminoguanidine, reference compound]	74%	12.1%	67%				
CC(C)(Oc1ccc(Cl)cc1)C(=O)NC1(C(=O)O)CCCCC1 [LR93]		49.2%		35%	42.8%		
CC(C)(Oc1ccc(NC(=O)Nc2cc(Cl)cc(Cl)c2)cc1)C(=O)N1CCCCC1C(=O)O (stereo not shown) [LR94]		28.5%		26.8%	33.7%		
CC(C)C[C@H](NC(=O)C(C)(C)Oc1ccc(NC(=O)Nc2cc(Cl)cc(Cl)c2)cc1)C(=O)O [LR95]		61.9%		34%	29.5%		
COC(=O)CC[C@H](NC(=O)C(C)(C)Oc1ccc(NC(=O)Nc2cc(Cl)cc(Cl)c2)cc1)C(=O)O [LR96]		57.1%		30%	42.4%	strong inhibitors of AGE-protein crosslinking	2 to 3 times
CC(C)(Oc1ccc(NC(=O)Nc2cc(Cl)cc(Cl)c2)cc1)C(=O)NCCCC(=O)O [LR97]		36.5%		26.2%	33.3%		
CC(C)(Oc1ccc(NC(=O)Nc2cc(Cl)cc(Cl)c2)cc1)C(=O)NCC(=O)O [LR98]		42.8%		26.7%	37.3%		
CC(C)(Oc1ccc(NC(=O)Nc2cc(Cl)cc(Cl)c2)cc1)C(=O)Nc1ccc(C(=O)O)cc1 [LR99]		53.9%		30.9%	39.5%	strong inhibitors of AGE-protein crosslinking	2 to 3 times
CC(C)(Oc1ccc(NC(=O)Nc2cc(Cl)cc(Cl)c2)cc1)C(=O)NC1(C(=O)O)CCCC1 [LR100]		52.4%		31.9%	28.5%		
